Laboratory results reported in patent US20070189997A1, “Skin-whitening agent containing polyphenol compound” (Nichirei Foods Inc., priority 2004, published 2007).
“And” between values parts separate entries of the source, which are not always exact repeats. Equal entries are not always repeated.

Assays:
mushroom tyrosinase [1] = assay: Inhibition of tyrosinase activity (L-Dopa, absorbance at 475 nm), procedure of Example 3; assay type: biochemical; conditions: for effects of inhibiting tyrosinase activity (FIG. 1, 3, 4): 25° C., various concentrations in DMSO; for effects for inhibiting tyrosinase activity relative to kojic acid: compared with kojic acid, Table 2; for IC50: procedure of Example 3, read-out: Concentration at which 50% of tyrosinase activity is inhibited
Method: 1/15M phosphate buffer (70 μl, pH 6.8), 2 μl each of sample solutions of the C18-adsorbed fraction obtained in Example 1 dissolved in dimethyl sulfoxide (DMSO) at various concentrations, and 70 μl (10 U) of mushroom tyrosinase (Calzyme Laboratories) dissolved in the buffer were mixed, and the mixture was incubated at 25° C. for 10 minutes. Thereafter, 70 μl of 10 mM L-Dopa was added to initiate the reaction, the absorbance at 475 nm was assayed every 20 seconds for 2 minutes, and the inhibition (%) of tyrosinase activity was calculated using the following equation. […] Further, PVPP resin was added to the supernatant to a concentration of 1%, and the resultant was also agitated for 1.5 hours, followed by centrifugation to obtain a supernatant. […] The sample was dissolved in 1/15M phosphate buffer (pH 6.8) instead of DMSO. The polyphenol content was assayed in the same manner as in Example 1.

tyrosinase [2] = assay: Tyrosinase activity inhibition, C18-adsorbed fraction and ascorbic acid alone and combined (Example 12, absorbance at 450 nm); assay type: biochemical, mushroom
Method: A sample (or a combination of two types of samples) was dissolved in DMSO and diluted with DMSO at adequate concentrations.
A tyrosinase solution (70 μl, 10 U/70 μl, Calzyme Laboratories, Inc.), 70 μl of 1/15M phosphate buffer (Wako Pure Chemical Industries, Ltd.), and 4 μl each of the samples dissolved in DMSO at various concentrations were introduced into separate wells of a 96-well plate. DMSO was added to a control sample instead of a sample solution.
After the pre-incubation was carried out at 25° C. for 10 minutes, 70 μl of 10 mM L-DOPA (Wako Pure Chemical Industries, Ltd.) was added, the mixture was mixed immediately thereafter, and the absorbance at 450 nm was assayed every 20 seconds for 2 minutes. Change (slope) in the absorbance per unit time thus assayed was designated as the initial rate, and the inhibition (%) was determined by the following equation. Inhibition (%)={1−(initial ratesample/initial ratecontrol)}×100
The terms “additive effect” and “synergistic effect” are described. When tyrosinase activity inhibition (%) by the C18-adsorbed fraction alone at a concentration of A μg/ml is X (%) and tyrosinase activity inhibition (%) by ascorbic acid alone at a concentration of B μg/ml is Y (%), the case where the value Z for the tyrosinase activity inhibition (%) assayed upon the reaction of the C18-adsorbed fraction at a concentration of A μg/ml with ascorbic acid at a concentration of B μg/ml is equal to the sum of X+Y is evaluated as “C18-adsorbed fraction additively reacts with ascorbic acid.” The case where the value Z is greater than the sum of X+Y is evaluated as “C18-adsorbed fraction synergistically reacts with ascorbic acid.” When the value Z is smaller than the sum of X+Y, the C18-adsorbed fraction and ascorbic acid attenuate their effects each other.

mushroom tyrosinase [3] = assay: Test of anthocyanidin compounds for inhibiting tyrosinase activity (Example 11, IC50); assay type: biochemical; conditions: for IC50: 25° C., L-Dopa, 475 nm
Method: The sample compounds were dissolved in DMSO and diluted with DMSO at adequate concentrations.
1/15M phosphate buffer (70 μl), 70 μl of a solution containing mushroom tyrosinase adjusted at 1 U/μl with a buffer, and 2 μl each of sample solutions dissolved in DMSO at various concentrations were introduced into separate wells of a 96-well plate, and these substances were thoroughly mixed, followed by incubation at 25° C. for 10 minutes.
A solution of 10 mM L-Dopa (70 μl) was added and mixed in immediately thereafter. […] The reaction was carried out at 25° C.
Change (slope) in the absorbance per unit time was designated as the initial rate, and the inhibition of tyrosinase activity (%) was determined by the following equation. Inhibition (%)={1−(initial ratesample/initial ratecontrol)}×100

tyrosinase [4] = conditions: cited from earlier work
[5] = in vivo; cited from earlier work

| IC50 (mushroom tyrosinase [3]) | Structure (SMILES) | effects of inhibiting tyrosinase activity (Non-Patent Document 1) (tyrosinase [4]) | effects of inhibiting tyrosinase activity (mushroom tyrosinase [3]) | also measured |
| --- | --- | --- | --- | --- |
| – | O=C1O[C@H]([C@@H](O)CO)C(O)=C1O [Ascorbic acid, ascorbic acid] | – | – | Inhibition of tyrosinase activity (%) (mushroom tyrosinase [1]; Ascorbic acid 33.3 μM): 5.49%; Mean of tyrosinase activity inhibition (n = 3) (tyrosinase [2]; ascorbic acid alone 2.4 μg/ml): −1.3%; Mean of tyrosinase activity inhibition (n = 3) (tyrosinase [2]; ascorbic acid alone 4.7 μg/ml): 1.0% and 1.0 ± 3.4%; Mean of tyrosinase activity inhibition (n = 3) (tyrosinase [2]; ascorbic acid alone 9.4 μg/ml): 9.0% and 9.0 ± 2.9%; Mean of tyrosinase activity inhibition (n = 3) (tyrosinase [2]; ascorbic acid alone 47.2 μg/ml): 95.0%; tyrosinase inhibitory activity (tyrosinase [2]; ascorbic acid at a concentration up to 9.4 μg/ml): inhibitory activity was not observed very much; tyrosinase inhibitory activity (tyrosinase [2]; ascorbic acid at a final concentration of 47.2 μg/ml): almost completely inhibited |
| > 2000 µM | C[C@@H]1O[C@@H](O[C@H]2C(=O)c3c(O)cc(O)cc3O[C@@H]2c2ccc(O)c(O)c2)[C@H](O)[C@H](O)[C@H]1O [Astilbin, dehydroquercitrin] | – | – | – |
| 33 µM | C[C@@H]1O[C@@H](Oc2cc3c(O)cc(O)cc3[o+]c2-c2ccc(O)c(O)c2)[C@H](O)[C@H](O)[C@H]1O.[Cl-] [C3R, cyanidin-3-rhamnoside] | – | – | effects of inhibiting tyrosinase activity (FIG. 1, 3, 4) (mushroom tyrosinase [1]): found to have effects of inhibiting tyrosinase activity; effects for inhibiting tyrosinase activity relative to kojic acid (mushroom tyrosinase [1]): equivalent to those of kojic acid; IC50 (mushroom tyrosinase [1]): 33 µM |
| 11 µM | Oc1cc(O)c2cc(O)c(-c3ccc(O)c(O)c3)[o+]c2c1.[Cl-] [Cyanidin chloride] | neither delphinidin, cyanidin, and malvidin have effects of inhibiting tyrosinase activity | found to have effects of inhibiting tyrosinase activity | – |
| 84 µM | OC[C@H]1O[C@@H](Oc2cc3c(O)cc(O)cc3[o+]c2-c2ccc(O)c(O)c2)[C@H](O)[C@@H](O)[C@@H]1O [Cyanidin-3-glucoside, reference compound] | – | – | – |
| 16.4 µM | Oc1cc(O)c2cc(O)c(-c3cc(O)c(O)c(O)c3)[o+]c2c1 [Delphinidin chloride] | neither delphinidin, cyanidin, and malvidin have effects of inhibiting tyrosinase activity | found to have effects of inhibiting tyrosinase activity | – |
| – | O=c1cc(CO)occ1O [Kojic acid] | – | – | potential cause of liver cancer in animal tests [5]: found to be a potential cause of liver cancer |
| 5.7 µM | CC1O[C@@H](Oc2cc3c(O)cc(O)cc3[o+]c2-c2ccc(O)cc2)[C@@H](O)C(O)[C@H]1O (some centres unmarked) [P3R, pelargonidin-3-rhamnoside] | – | – | effects of inhibiting tyrosinase activity (FIG. 1, 3, 4) (mushroom tyrosinase [1]): found to have effects of inhibiting tyrosinase activity; effects for inhibiting tyrosinase activity relative to kojic acid (mushroom tyrosinase [1]): about 6 times; IC50 (mushroom tyrosinase [1]): 5.7 µM |
| 20 µM | Oc1ccc(-c2[o+]c3cc(O)cc(O)c3cc2O)cc1 [Pelargonidin chloride] | – | found to have effects of inhibiting tyrosinase activity | – |

| Structure (SMILES) | IC50 (mushroom tyrosinase [3]) | effects of inhibiting tyrosinase activity (Non-Patent Document 1) (tyrosinase [4]) | effects of inhibiting tyrosinase activity (mushroom tyrosinase [3]) | also measured |
| --- | --- | --- | --- | --- |
| COc1cc(-c2[o+]c3cc(O)cc(O)c3cc2O)cc(OC)c1O [Malvidin chloride] | 0.4 µM | neither delphinidin, cyanidin, and malvidin have effects of inhibiting tyrosinase activity | particularly potent | – |
